Earlier results in patent US20050118265A1, “Antifungal oral dosage forms and the methods for preparation” (priority 2003, published 2005).

Legend:
[1] = pH 8.1
[2] = based on extrapolation of values obtained from methanolic solutions

Compound: CCC(C)n1ncn(-c2ccc(N3CCN(c4ccc(OCC5COC(Cn6cncn6)(c6ccc(Cl)cc6Cl)O5)cc4)CC3)cc2)c1=O (racemic) [Itraconazole, (±)-1-[(RS)-sec-butyl]-4-[p-[4-[p-[[(2R,4S)-2-(2,4-dichlorophenyl)-2-(1H-1,2,4-triazol-1-ylmethyl)-1,3-dioxolan-4-yl]methoxy]phenyl]-1-piperazinyl]phenyl]-Ä 2-1,2,4-triazolin-5-one]
- solubility in alcohol (alcohol): very slightly soluble
- solubility in dichloromethane (dichloromethane): freely soluble
- solubility in ethanol (ethanol alone): poorly soluble
- solubility in water (water): insoluble
- log (n-octanol/water) partition coefficient [1]: 5.66
- pKa [2]: 3.70
